Measured values from publication PMC11335189, “Revealing molecular determinants governing mambalgin-3 pharmacology at acid-sensing ion channel 1 variants” (Cellular and Molecular Life Sciences: CMLS, 2024).
Positions of bridges follow the written chain, without caps; N, C: chain ends. No end group written: not given here.

What was measured:
[1] = molecular target: T1, rASIC1a S83T/Q84E/R175C/E177G (SQRE) (Rattus norvegicus, UniProt P55926, E177G/Q84E/R175C/S83T); experiment: TEVC oocytes, rASIC1a quadruple mutant SQRE; assay type: cell-based; settings: for remaining activity at 0.3 µM: 300 nM peptide, conditioning pH 7.45, stimulating pH 6, read-out: I/Icontrol
T1 construct: expressed in transfected cells; host or cells: Xenopus laevis oocytes (cRNA injection)
T1 sequence (P55926 1-526 S83T/Q84E/R175C/E177G): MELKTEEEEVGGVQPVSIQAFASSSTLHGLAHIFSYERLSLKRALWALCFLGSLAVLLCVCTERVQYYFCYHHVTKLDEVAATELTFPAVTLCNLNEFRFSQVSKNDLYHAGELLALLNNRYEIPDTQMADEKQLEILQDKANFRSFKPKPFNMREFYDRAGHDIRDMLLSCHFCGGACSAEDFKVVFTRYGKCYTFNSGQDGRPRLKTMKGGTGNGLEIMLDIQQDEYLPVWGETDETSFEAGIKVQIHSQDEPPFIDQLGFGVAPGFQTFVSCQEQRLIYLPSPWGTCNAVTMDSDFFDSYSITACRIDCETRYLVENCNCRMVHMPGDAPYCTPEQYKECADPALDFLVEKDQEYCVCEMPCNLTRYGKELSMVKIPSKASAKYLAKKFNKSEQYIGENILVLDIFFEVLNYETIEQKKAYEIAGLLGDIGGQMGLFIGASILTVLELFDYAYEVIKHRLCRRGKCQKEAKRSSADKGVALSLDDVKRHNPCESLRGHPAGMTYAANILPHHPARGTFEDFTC
Experimental: (§1) Two-electrode voltage-clamp (TEVC) experiments using Xenopus laevis oocytes were conducted as previously described. Briefly, oocytes were surgically removed from anaesthetised female frogs, then treated with collagenase (~ 1 mg/ml, Sigma type I) for 2 h under agitation at room temperature. cRNAs were synthesised using a mMessage mMachine T7 or SP6 transcription kit (Thermo Fisher Scientific Australia Pty Ltd, Scoresby, VIC, Australia) and injected into healthy stage V–VI oocytes at 0.2–20 ng per cell. Different amounts of RNA were used for different wild-type and mutant constructs, as well as to titrate expression levels to record over multiple days and maintaining consistent expression levels. Injected oocytes were incubated at 17 °C for 1–7 days in 50% Leibovitz’s L-15 medium (Gibco, Thermo Fisher Scientific Australia Pty Ltd, Scoresby, VIC, Australia), supplemented with 25 µg/mL gentamicin, 25 µg/mL streptomycin, and 2.5% fetal horse serum. Membrane currents were recorded 2–7 days after cRNA-injection under voltage-clamp at -60 mV (Axon Axoclamp 900 A, Molecular Devices, CA, USA) using two standard glass microelectrodes of 0.5–1 MΩ resistance when filled with 3 M KCl solution. Data were sampled at 2 kHz and filtered at 0.1 kHz using Clampex 10 software (Molecular Devices, CA, USA). A microperfusion system was used to allow fast extracellular solution exchange (bath volume = ~ 30 µL). All experiments were performed at room temperature (18–23 °C) in ND96 (96 mM NaCl, 2 mM KCl, 1.8 mM CaCl2, 2 mM MgCl2, 5 mM HEPES, pH 7.45). In solutions below pH 6.8, HEPES was replaced by MES. All solutions containing peptides contained 0.05% fatty acid free bovine serum albumin to decrease adsorptive losses of peptide to plasticware. For all channels tested, control current magnitudes between 500 and 9000 nA when tested using a conditioning pH of 7.45 and stimulating pH of 6 (except for the chimeras that were stimulated with pH 5) were used for data collection. Before recording any experiments, oocytes were stimulated multiple times with low pH to minimise and stabilise tachyphylaxis/desensitisation, which were then accounted for during analysis. Complete recovery of currents from Ma-3 induced modulation within 3 min of washout at all channels tested allowed for correction for tachyphylaxis/desensitisation during analyses.
(§2) Specific to this work, the standard protocol was for oocytes to be conditioned at pH 7.45 and channels stimulated every 60 s using a 5 s pH 5 or 6 application, unless stated otherwise. For all concentration-response data, peptides were applied for ~ 50 s between each low pH stimulus application. Activation curves were determined by conditioning oocytes at pH 8 (Fig. 2e − g; and Fig. 5a and b) or 7.45 (Fig. 6; and Supplementary Fig. 2d and c) for 55 s and applying low pH stimuli from 7.25 to 5.0 for 5 s. Steady-state desensitisation (SSD) was determined by applying conditioning solutions of pH values from 8 to 6 for 115 s prior to stimulation by a pH drop to 5 for 5 s. Ma-3 was only applied in the conditioning solution for activation and steady-state desensitisation curves in the presence of peptide. Control pH-dependence curves were determined in the absence of any Ma-3. When assessing the effect of Ma-3 on the rASIC1a: ASIC1b chimeras (C92 and C166; and for the comparative wild-type data), the conditioning pH was 7.45 and stimulating pH 5 (Fig. 3b). Specific details of the conditioning and stimulating pH are noted in each figure legend.
(§3) Data were analysed using pCLAMP-Clampfit software (Version 11, Molecular Devices, CA, USA) and GraphPad Prism 9.5 and 10.2.2 (GraphPad Software, San Diego, CA, USA). To obtain the Hill coefficient (nH) and half-maximal response (EC50, IC50, or pH50) the Hill equation was fitted to normalised concentration-response curves by using a non-linear fit to the data of a four-parameter logistic equation (“sigmoidal dose-response” in GraphPad Prism 9.5). […]

rASIC1b = molecular target: T2, rASIC1b (Rattus norvegicus, UniProt P55926); experiment: TEVC in Xenopus laevis oocytes expressing rASIC1b; assay type: cell-based; settings: for remaining activity at 0.3 µM: 300 nM peptide, conditioning pH 7.45, stimulating pH 6, read-out: I/Icontrol; for loss in potency relative to wild-type Ma-3 (estimated): peptides applied at pH 7.45, stimulated at pH 6
T2 construct: expressed in transfected cells; host or cells: Xenopus laevis oocytes (cRNA injection)
T2 sequence (P55926 1-559 isoform P55926-3): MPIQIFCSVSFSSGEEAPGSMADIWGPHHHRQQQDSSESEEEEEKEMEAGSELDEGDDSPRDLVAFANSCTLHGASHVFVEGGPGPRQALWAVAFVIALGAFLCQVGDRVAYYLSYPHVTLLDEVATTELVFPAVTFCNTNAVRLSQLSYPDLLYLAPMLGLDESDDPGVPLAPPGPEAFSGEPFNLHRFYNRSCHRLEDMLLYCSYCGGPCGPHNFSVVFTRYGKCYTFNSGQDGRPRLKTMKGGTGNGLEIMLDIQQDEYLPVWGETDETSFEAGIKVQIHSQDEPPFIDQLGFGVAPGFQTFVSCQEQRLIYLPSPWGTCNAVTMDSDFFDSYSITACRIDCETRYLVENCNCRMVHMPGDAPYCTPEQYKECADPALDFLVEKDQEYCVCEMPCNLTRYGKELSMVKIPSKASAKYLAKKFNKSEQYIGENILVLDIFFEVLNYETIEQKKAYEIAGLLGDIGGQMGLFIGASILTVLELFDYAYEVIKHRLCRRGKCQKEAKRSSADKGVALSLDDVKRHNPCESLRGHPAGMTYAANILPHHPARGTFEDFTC
Experimental: as §1, §2, §3

[2] = 100 nM Ma-3, conditioning pH 8, mean ± SEM
[3] = 100 nM Ma-3, stimulating pH 5, mean ± SEM
[4] = 100 nM Ma-3 in conditioning solution, conditioning pH 8, Hill fit, mean ± SEM, n = 5–8
[5] = 100 nM Ma-3 in conditioning solution, stimulating pH 5, Hill fit, mean ± SEM, n = 5–8

Row | Substance | remaining activity at 0.3 µM ([1]; n = 5–8) | remaining activity at 0.3 µM (rASIC1b; n = 5–8) | loss in potency relative to wild-type Ma-3 (estimated) (rASIC1b) | shift of the activation curve towards acidic values ([1]; 100 nM Ma-3, conditioning pH 8) | slope of activation curve in presence of Ma-3 [1, 2] | change of pH50 of the SSD curve ([1]; 100 nM Ma-3, stimulating pH 5) | slope of SSD curve in presence of Ma-3 [1, 3] | pH50 of activation in presence of Ma-3 [1, 4] | pH50 of steady-state desensitisation (SSD) in presence of Ma-3 [1, 5] | shift in the activation curve (rASIC1b; 100 nM Ma-3, conditioning pH 8) | slope of activation curve in presence of Ma-3 (rASIC1b; [2]) | shift of the SSD curve towards alkaline values (rASIC1b; 100 nM Ma-3, stimulating pH 5) | slope of SSD curve in presence of Ma-3 (rASIC1b; [3]) | pH50 of activation in presence of Ma-3 (rASIC1b; [4]) | pH50 of steady-state desensitisation (SSD) in presence of Ma-3 (rASIC1b; [5]) | t1/2 of onset of inhibition (rASIC1b; 300 nM Ma-3 (~ 10 times the IC50) applied at pH 7.45 for different durations, single exponential fit, n = 5) | pH50 of activation in presence of Ma-3 (rASIC1b; 300 nM Ma-3, conditioning pH 7.45, Hill fit, n = 5–6) | time of Ma-3 application to maximal inhibition (rASIC1b; 300 nM Ma-3 at pH 7.45) | t1/2 of recovery of currents from inhibition (washout) (rASIC1b; after 300 nM Ma-3, pH 7.45 conditioning, single exponential fit, n = 5)
1 | H-SLKCYQHGAVVTCHRDMKFCYHNIGMPFRNLKLILQGCSSSCSETENNKCCSTDRCNK (disulfide 4-20, 13-38, 42-50, 51-56 (inferred)) [K8A] | 65% | 91% | > 30 fold |  |  |  |  |  |  |  |  |  |  |  |  |  |  |  | 
2 | H-SLKCYQHGKVVTCHRDAKFCYHNIGMPFRNLKLILQGCSSSCSETENNKCCSTDRCNK (disulfide 4-20, 13-38, 42-50, 51-56 (inferred)) [M16A] | 56% | 80% | > 30 fold |  |  |  |  |  |  |  |  |  |  |  |  |  |  |  | 
3 | H-SLKCYQHGKVVTCHRDMKFCYHNIGMPFRNLKLILQGCSSSCSETENNKCCSTDRCNK (disulfide 4-20, 13-38, 42-50, 51-56 (inferred)) [Ma-3, mambalgin-3] | 48% | 40% |  | 0.11 pH units | 2.68 ± 0.34 | remained unchanged | 5.47 ± 0.95 | 6.03 ± 0.02 | 7.12 ± 0.01 | no shift | 3.69 ± 0.56 | 0.06 pH units | 2.41 ± 0.51 | 6.03 ± 0.02 | 7.04 ± 0.04 | 3.8 s | 6.17 | ≤ 45 s | 12.8 s
